Test results: US12636294B2, “Compositions and methods for the treatment or prevention of traumatic brain injury” (priority 2019, dated 2026)

Assays:
[1] = system: rat model of TBI induced by controlled cortical impact (CCI); assay: Morris Water Maze (MWM), spatial learning and memory after CCI injury; format: in vivo, Sprague-Dawley (SD) rats; settings: observed; for E (normalised activity value used to calculate synergy), MWM proportion of rats that reached the platform / E (normalised activity value used to calculate synergy), MWM instances of rats reaching the platform: (X-placebo)/(sham-placebo); for E (normalised activity value used to calculate synergy), MWM instances of rats reaching the platform: 7-days post-head injury; for Instances of centre of rat corresponding to platform location normalised to the number of rats in group / Number of rats that reached the platform normalised to the total number of rats in each group: MWM 7-days post-head injury; for Instances of centre of rat corresponding to platform location normalised to the number of rats in group: CBD 20 mg/kg I.P LD 15-30 min post-injury + MD x 6, isoflurane 1.5% inhaled LD at 1 hr post-injury; for Number of rats that reached the platform normalised to the total number of rats in each group: CBD 20 mg/kg I.P LD + MD x 6, isoflurane 1.5% inhaled LD
Description: (§1) The effect of cannabidiol (CBD) combined with isoflurane therapy was assessed using a rat model of TBI induced by controlled cortical impact (CCI). Briefly, Sprague-Dawley (SD) rats were anaesthetised with 3% pentobarbital sodium before fixing the head in a stereotaxic frame. After performing a craniotomy, a contusion injury (CCI) was induced with an IMP-3000 TBI Impactor with a diameter of 5.0 mm, a depth of 2.5 mm, dwell time of 100 ms and velocity of 5 m/s. Control rats underwent the same surgical procedure, including craniotomy, without CCI.
(§2) The randomised groups are detailed in Table 2.
(§3) Behavioural outcomes following CCI were assessed using the Morris Water Maze (MWM), which assesses cognitive defects after CCI injury (see, e.g., Nunez, 2008, Journal of Visualized Experiments, 897) and the Rotarod test, which assesses changes in motor function (see, e.g., Shiotsuki et al., 2010, Journal of Neuroscience Methods, 189: 180-185).
(§4) The combinatorial neuroprotective effects of CBD and isoflurane were assessed using a rat controlled cortical impact model of TBI. Briefly, head injury is induced in the rats by first performing a craniotomy to remove a small disc of bone from the skull and then using a pneumatic rod to directly impact the exposed brain. Controlled Cortical Impact (CCI) parameters used in this study were 2.5 mm depth, 5 m/s velocity, 100 ms dwell time. Sham control animals underwent an identical surgical procedure, including craniotomy, but without the CCI injury.
(§5) Animals were treated with CBD (20 mg/kg) and isoflurane (1.5%) both alone and in combination (Table 2). A loading dose comprising CBD and isoflurane was administered sequentially, with CBD administered 15-30 min post injury and isoflurane administered 1-2 h after injury. Daily maintenance doses of CBD were administered for six consecutive days after administration of the loading dose.
(§6) To determine the neuroprotective effects associated with the combination of CBD and isoflurane, the MWM, a well-established assay for investigation of spatial learning and memory (Nunez, 2008, supra; D'Hooge et al., 2001, Brain Research Reviews, 36: 60-90), and the Rotarod, a device used to monitor motor coordination (Deacon, 2013, Journal of Visualized Expreiments, e2609-e2609; Shitosuki et al., 2010, supra), were used 7-days post-head injury. The predicted combinatorial effects of CBD and isoflurane were calculated using the Bliss independence principle using the equation: Epred A+B=(EA+EB)−(EAEB)
(§7) The activity of the combination for this equation was calculated as: (X−placebo)/(sham−placebo)
In the MWM a rat is trained to recognise where a platform is located in a water tank over a series of days. It is then released into the tank and monitored for the ability to locate the platform. A lack of ability to locate the platform is indicative of a spatial memory neurocognitive deficit.

[2] = system: rat model of TBI induced by controlled cortical impact (CCI); assay: Rotarod test, motor function after CCI injury; format: in vivo, Sprague-Dawley (SD) rats; settings: observed; for E (normalised activity value used to calculate synergy), Rotarod latencies: (X-placebo)/(sham-placebo); for Latency: Rotarod 7-days post-head injury, CBD 20 mg/kg I.P LD + MD x 6, isoflurane 1.5% inhaled LD
Description: as §1, §2, §3, §4, §5, §6, §7

[3] = after inhalation; general statement, no experiment described; cited from earlier work
[4] = general statement, no experiment described; cited from earlier work

With C=C(C)[C@@H]1CCC(C)=C[C@H]1c1c(O)cc(CCCCC)cc1O [CBD, cannabidiol] the “E (normalised activity value used to calculate synergy), MWM proportion of rats that reached the platform” value [1] was 0.21, the “E (normalised activity value used to calculate synergy), MWM instances of rats reaching the platform” value [1] was −0.2 and the “Instances of centre of rat corresponding to platform location normalised to the number of rats in group” value [1] was 0.4. For the same compound, the “Number of rats that reached the platform normalised to the total number of rats in each group” value [1] was 0.4, the “E (normalised activity value used to calculate synergy), Rotarod latencies” value [2] was −0.04 and the “Latency” value [2] was 17.60 s. For the same compound, the “Time to achieve significant CNS concentrations” value [3] was “within two minutes”.

For COC(F)(F)C(Cl)Cl [Methoxyflurane, methoxyflurane], the Lipid solubility [4] is listed as “highly lipid-soluble” and the “Time to achieve significant CNS concentrations” value [3] is listed as ≤ 2 min.

In the case of FC(F)OC(Cl)C(F)(F)F (stereo not drawn) [isoflurane], the “E (normalised activity value used to calculate synergy), MWM proportion of rats that reached the platform” value [1] was 0.50, the “E (normalised activity value used to calculate synergy), MWM instances of rats reaching the platform” value [1] was 0.67 and the “Instances of centre of rat corresponding to platform location normalised to the number of rats in group” value [1] was 0.83. For the same compound, the “Number of rats that reached the platform normalised to the total number of rats in each group” value [1] was 0.5, the “E (normalised activity value used to calculate synergy), Rotarod latencies” value [2] was −0.09 and the “Latency” value [2] was 17.33 s.
